{
  "source": "ChEMBL document CHEMBL5705884",
  "about": "“Breaching the DNA damage checkpoint via PF-00477736, a novel small-molecule inhibitor of checkpoint kinase 1” (Mol Cancer Ther, 2008)",
  "key": {"[1]": {"target": "T1, Receptor-type tyrosine-protein kinase FLT3 (Homo sapiens, UniProt P36888)", "T1 sequence (P36888 whole entry)": "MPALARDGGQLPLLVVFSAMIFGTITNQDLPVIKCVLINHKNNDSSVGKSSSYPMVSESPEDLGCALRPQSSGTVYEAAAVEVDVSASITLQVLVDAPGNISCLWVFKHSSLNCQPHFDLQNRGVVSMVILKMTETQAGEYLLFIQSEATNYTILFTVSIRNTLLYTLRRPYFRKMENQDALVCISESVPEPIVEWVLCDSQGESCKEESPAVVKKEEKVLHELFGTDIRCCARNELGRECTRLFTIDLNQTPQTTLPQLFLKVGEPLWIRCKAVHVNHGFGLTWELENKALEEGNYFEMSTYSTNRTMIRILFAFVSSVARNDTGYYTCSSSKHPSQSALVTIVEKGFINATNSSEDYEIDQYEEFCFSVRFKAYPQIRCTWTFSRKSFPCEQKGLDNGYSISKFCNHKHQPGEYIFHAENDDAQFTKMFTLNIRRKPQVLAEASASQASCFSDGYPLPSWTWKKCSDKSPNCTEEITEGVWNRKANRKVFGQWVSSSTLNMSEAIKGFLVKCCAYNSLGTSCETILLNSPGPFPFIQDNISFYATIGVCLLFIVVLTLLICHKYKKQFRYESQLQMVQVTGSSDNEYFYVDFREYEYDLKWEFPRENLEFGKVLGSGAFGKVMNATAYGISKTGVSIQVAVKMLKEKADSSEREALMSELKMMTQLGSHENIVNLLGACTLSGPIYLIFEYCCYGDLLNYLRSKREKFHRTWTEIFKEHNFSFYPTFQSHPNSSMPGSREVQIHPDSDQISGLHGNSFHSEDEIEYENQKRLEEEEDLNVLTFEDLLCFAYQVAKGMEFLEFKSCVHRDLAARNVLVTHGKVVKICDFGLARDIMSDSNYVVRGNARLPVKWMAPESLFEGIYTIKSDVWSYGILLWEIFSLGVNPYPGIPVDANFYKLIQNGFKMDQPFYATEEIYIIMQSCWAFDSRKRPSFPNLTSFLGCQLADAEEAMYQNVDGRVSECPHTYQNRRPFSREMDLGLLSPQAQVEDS", "assay": "Inhibition of FLT3 (unknown origin)"}, "[2]": {"target": "Proto-oncogene tyrosine-protein kinase receptor Ret (Homo sapiens, UniProt P07949)", "sequence (P07949 whole entry)": "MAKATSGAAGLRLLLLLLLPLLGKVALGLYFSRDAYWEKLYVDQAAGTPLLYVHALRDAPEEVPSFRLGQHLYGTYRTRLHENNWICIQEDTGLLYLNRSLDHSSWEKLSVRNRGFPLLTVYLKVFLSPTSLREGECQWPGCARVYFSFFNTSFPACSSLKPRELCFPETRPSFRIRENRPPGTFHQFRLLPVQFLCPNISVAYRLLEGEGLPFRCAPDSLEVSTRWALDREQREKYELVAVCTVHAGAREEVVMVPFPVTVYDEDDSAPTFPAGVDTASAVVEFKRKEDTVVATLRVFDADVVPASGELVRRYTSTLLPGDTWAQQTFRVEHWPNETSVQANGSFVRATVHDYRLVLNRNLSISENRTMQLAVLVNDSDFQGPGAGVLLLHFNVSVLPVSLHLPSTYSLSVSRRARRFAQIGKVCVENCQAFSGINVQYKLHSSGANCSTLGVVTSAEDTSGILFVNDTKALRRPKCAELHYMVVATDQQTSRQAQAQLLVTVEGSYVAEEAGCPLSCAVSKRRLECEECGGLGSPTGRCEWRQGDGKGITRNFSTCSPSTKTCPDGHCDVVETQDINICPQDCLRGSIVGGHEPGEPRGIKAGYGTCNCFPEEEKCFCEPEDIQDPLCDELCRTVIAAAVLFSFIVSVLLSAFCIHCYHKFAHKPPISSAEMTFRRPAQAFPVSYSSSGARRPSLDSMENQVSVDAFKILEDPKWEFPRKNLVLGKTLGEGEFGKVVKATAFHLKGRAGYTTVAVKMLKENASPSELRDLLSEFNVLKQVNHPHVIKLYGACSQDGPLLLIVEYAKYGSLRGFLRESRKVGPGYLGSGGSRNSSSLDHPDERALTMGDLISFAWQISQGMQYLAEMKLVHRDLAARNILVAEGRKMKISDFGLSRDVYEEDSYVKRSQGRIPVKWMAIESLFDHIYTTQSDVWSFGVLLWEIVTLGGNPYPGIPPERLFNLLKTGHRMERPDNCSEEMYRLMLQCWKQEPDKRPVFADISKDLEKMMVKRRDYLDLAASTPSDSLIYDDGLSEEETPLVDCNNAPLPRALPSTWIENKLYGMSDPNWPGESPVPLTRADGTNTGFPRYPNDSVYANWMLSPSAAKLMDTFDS", "assay": "Inhibition of Ret (unknown origin)"}, "[3]": {"assay": "Volume of distribution at steady state in Sprague-Dawley rat at 4 mg/kg, iv administered as bolus dose by LCMS analysis", "format": "ADME, organism-based", "conditions": "in vivo, read-out: Vdss"}, "HeLa": {"test_system": "HeLa", "assay": "Inhibition of camptothecin induced DNA damage in human HeLa cells assessed as increase in mitotic index by measuring histone H3 phosphorylation at S10 residue at 0.001 to 1 uM measured after 16 hrs presence of nocodazole by dot blot assay", "format": "functional, cell-based"}, "HT-29 [4]": {"test_system": "HT-29", "assay": "Induction of apoptosis in gemcitabine induced human HT-29 cells assessed as apoptotic cell death measured after 10 hrs by PI staining based flow cytometry analysis (reference value: 0.6%)", "format": "functional"}, "HT-29 [5]": {"test_system": "HT-29", "assay": "Induction of apoptosis in gemcitabine induced human HT-29 cells assessed as apoptotic cell death measured after 24 hrs by PI staining based flow cytometry analysis (reference value: 0.7%)", "format": "functional"}, "HT-29 [6]": {"test_system": "HT-29", "assay": "Induction of apoptosis in gemcitabine induced human HT-29 cells assessed as apoptotic cell death measured after 48 hrs by PI staining based flow cytometry analysis (reference value: 8.6%)", "format": "functional"}, "HT-29 [7]": {"test_system": "HT-29", "assay": "Cytotoxicity in human HT-29 cells assessed as cell survival at 540 nM measured after 4 to 48 hrs by coulter counter method relative to control", "format": "functional", "conditions": "time 4-48 hrs, read-out: Activity"}, "HT-29 [8]": {"test_system": "HT-29", "assay": "Potentiation of gemcitabine induced cytotoxicity in human HT-29 cells assessed as cell survival at 180 nM measured after 4 to 48 hrs by coulter counter method relative to gemcitabine alone", "format": "functional", "conditions": "time 4-48 hrs, read-out: Activity"}, "HT-29 [9]": {"test_system": "HT-29", "assay": "Potentiation factor, ratio of IC50 for human HT-29 cells to IC50 for human HT-29 cells in presence of mytomicin-C", "format": "functional"}, "COLO 205 [10]": {"test_system": "COLO 205", "assay": "Potentiation factor, ratio of IC50 for human COLO 205 cells to IC50 for human COLO 205 cells in presence of doxorubicin", "format": "functional"}, "COLO 205 [11]": {"test_system": "COLO 205", "assay": "Potentiation factor, ratio of IC50 for human COLO 205 cells to IC50 for human COLO 205 cells in presence of mytomicin-C", "format": "functional"}, "PC-3 [12]": {"test_system": "PC-3", "assay": "Potentiation factor, ratio of IC50 for human PC-3 cells to IC50 for human PC-3 cells in presence of gemcitabine", "format": "functional"}, "PC-3 [13]": {"test_system": "PC-3", "assay": "Potentiation factor, ratio of IC50 for human PC-3 cells to IC50 for human PC-3 cells in presence of carboplatin", "format": "functional"}, "K562": {"test_system": "K562", "assay": "Potentiation factor, ratio of IC50 for human K562 cells to IC50 for human K562 cells in presence of doxorubicin", "format": "functional"}, "HT-29 [14]": {"test_system": "HT-29", "assay": "Upregulation of cyclin B level in gemcitabine induced human HT-29 cells at 360 nM measured after 10 hrs by immunoblot analysis", "format": "functional, cell-based"}, "HT-29 [15]": {"test_system": "HT-29", "assay": "Induction of DNA damage in gemcitabine induced human HT-29 cells assessed as increase in intensity of H2AX phosphorylation at 360 nM measured after 24 hrs by immunoblot analysis", "format": "functional, cell-based"}, "COLO 205 [16]": {"test_system": "COLO 205", "assay": "Antitumor activity against human COLO 205 cells xenografted in athymic nude mouse model assessed as tumor growth inhibition at 15 mg/kg, ip administered once daily in presence of gemcitabine (Gemcitabine alone = 40%)", "format": "functional", "conditions": "read-out: TGI"}, "COLO 205 [17]": {"test_system": "COLO 205", "assay": "Antitumor activity against human COLO 205 cells xenografted in athymic nude mouse model assessed as tumor growth inhibition at 4 mg/kg, ip administered twice daily in presence of gemcitabine (Gemcitabine alone= 58%)", "format": "functional", "conditions": "read-out: TGI"}, "COLO 205 [18]": {"test_system": "COLO 205", "assay": "Antitumor activity against human COLO 205 cells xenografted in athymic nude mouse model assessed as tumor growth inhibition at 4 mg/kg, ip administered once daily in presence of gemcitabine (Gemcitabine alone= 58%)", "format": "functional", "conditions": "read-out: TGI"}, "COLO 205 [19]": {"test_system": "COLO 205", "assay": "Antitumor activity against human COLO 205 cells xenografted in athymic nude mouse model assessed as potentiated tumor growth inhibition at 12 mg/kg, ip administered once daily in presence of gemcitabine relative to control", "format": "functional", "conditions": "read-out: TGI"}, "COLO 205 [20]": {"test_system": "COLO 205", "assay": "Antitumor activity against human COLO 205 cells xenografted in athymic nude mouse model assessed as potentiated tumor growth inhibition at 20 mg/kg, ip administered once daily in presence of gemcitabine relative to control", "format": "functional", "conditions": "read-out: TGI"}, "COLO 205 [21]": {"test_system": "COLO 205", "assay": "Antitumor activity against human COLO 205 cells xenografted in athymic nude mouse model assessed as tumor growth delay by measuring test to control tumor ratio at 20 mg/kg, ip administered once daily in presence of gemcitabine (Gemcitabine alone= 8%)", "format": "functional"}, "COLO 205 [22]": {"test_system": "COLO 205", "assay": "Antitumor activity against human COLO 205 cells xenografted in athymic nude mouse model assessed as gross log cell kill at 4 mg/kg, ip administered once daily in presence of gemcitabine (Gemcitabine alone = 0.5%)", "format": "functional"}, "COLO 205 [23]": {"test_system": "COLO 205", "assay": "Antitumor activity against human COLO 205 cells xenografted in athymic nude mouse model assessed as gross log cell kill at 30 mg/kg, ip administered once daily in presence of gemcitabine (Gemcitabine alone = 0.27%)", "format": "functional"}, "COLO 205 [24]": {"test_system": "COLO 205", "assay": "Antitumor activity against human COLO 205 cells xenografted in athymic nude mouse model assessed as gross log cell kill at 15 mg/kg, ip administered twice daily in presence of gemcitabine (Gemcitabine alone = 0.27%)", "format": "functional"}},
  "note": "Activity calls are given as the source filed them. The rule behind the calls is not given here.",
  "data": [
    {"smiles": "Cn1cc(-c2[nH]c3cc(NC(=O)[C@H](N)C4CCCCC4)cc4c3c2C=NNC4=O)cn1", "values": [
      {"measurement": "IC50", "setting": "[1]", "value": 51, "unit": "nM"},
      {"measurement": "IC50", "setting": "[2]", "value": 80, "unit": "nM"},
      {"measurement": "Vd", "setting": "[3]", "value": 0.7, "unit": "L/kg"},
      {"measurement": "EC50", "setting": "HeLa", "value": 38, "unit": "nM"},
      {"measurement": "Activity", "setting": "HT-29 [4]", "value": 0.1, "unit": "%"},
      {"measurement": "Activity", "setting": "HT-29 [5]", "value": 5.2, "unit": "%"},
      {"measurement": "Activity", "setting": "HT-29 [6]", "value": 78.6, "unit": "%"},
      {"measurement": "viability at 0.54 µM", "setting": "HT-29 [7]", "value": 83, "unit": "%"},
      {"measurement": "viability at 0.18 µM", "setting": "HT-29 [8]", "value": 75, "unit": "%"},
      {"measurement": "PF50", "setting": "HT-29 [9]", "value": 3.7},
      {"measurement": "PF50", "setting": "COLO 205 [10]", "value": 1.1},
      {"measurement": "PF50", "setting": "COLO 205 [11]", "value": 5.3},
      {"measurement": "PF50", "setting": "PC-3 [12]", "value": 12.2},
      {"measurement": "PF50", "setting": "PC-3 [13]", "value": 3.1},
      {"measurement": "PF50", "setting": "K562", "value": 1.1},
      {"measurement": "Activity", "setting": "HT-29 [14]", "value": "Active"},
      {"measurement": "Activity", "setting": "HT-29 [15]", "value": "Active"},
      {"measurement": "inhibition in vivo at 15 mg/kg", "setting": "COLO 205 [16]", "value": 67, "unit": "%"},
      {"measurement": "inhibition in vivo at 4 mg/kg", "setting": "COLO 205 [17]", "value": 63, "unit": "%"},
      {"measurement": "inhibition in vivo at 4 mg/kg", "setting": "COLO 205 [18]", "value": 58, "unit": "%"},
      {"measurement": "inhibition in vivo at 12 mg/kg", "setting": "COLO 205 [19]", "value": 23, "unit": "%"},
      {"measurement": "inhibition in vivo at 20 mg/kg", "setting": "COLO 205 [20]", "value": 43, "unit": "%"},
      {"measurement": "T/C", "setting": "COLO 205 [21]", "value": 12},
      {"measurement": "LCK", "setting": "COLO 205 [22]", "value": 0.5},
      {"measurement": "LCK", "setting": "COLO 205 [23]", "value": 0.66},
      {"measurement": "LCK", "setting": "COLO 205 [24]", "value": 1.03}
    ]}
  ]
}
